We go through two molecules from patent US20260048051A1, “TREATMENT OF INFLAMMATORY BOWEL DISEASE” (Atomwise Inc., priority 2024, published 2026).

Molecules are shown by their SMILES. Where two headings read alike, the source gives them in different places.

One data set can be described thus: Mouse colon distribution. As to conditions: colon / plasma, read-out: Colon/Plasma Ratio at 12 h. It counts as in vivo.
The nature of data set [1]: Mouse plasma pharmacokinetics, PO 5 mg/kg. It counts as in vivo. The procedure:
The following example describes the methods used to evaluate the pharmacokinetics of TYK2 inhibitors in vivo following dosing of a compound of the invention.
The pharmacokinetics of test compounds were evaluated in either male CD-1 mice or male C57BL/6 mice when administered by oral gavage and IV bolus injection. The animals were allowed free access to food and water before administration. The plasma samples were analyzed by LC-MS/MS and the concentration of test compound at each time point was determined by linear regression. Pharmacokinetic parameters were calculated from the plasma concentrations by non-compartmental modeling using WinNonlin 8.2.
Oral composition. To prepare a pharmaceutical composition for oral delivery, the test articles described herein were dissolved in DMSO and then mixed with necessary volume of PEG400 followed by […] in water or 50% Kolliphor HS 15 in saline to provide the final concentrations of 0.5 mg/mL or 1 mg/mL (Table 8). The resultant mixtures were suitable for oral administration.
The PK parameters measured in mouse plasma after treatment with TYK2 inhibitor compounds via PO (oral administration) at 5 mg/kg are summarized below in Tables 9-11.

Data set [2] can be described thus: Log D (octanol / phosphate buffer pH 7.4). The class given is physicochemical. As to conditions: for logD at 1 h: octanol/potassium phosphate buffer, pH 7.4, octanol / potassium phosphate buffer pH 7.4. On the procedure: 10 μL of 10 mM stock solutions was placed into a 96-well plate, and 300 μL of octanol was subsequently added. The plate was sealed and agitated on a plate shaker for 5 minutes, followed by centrifugation at 2000 rpm for 5 minutes. The seal was removed and 600 μL of potassium phosphate buffer (pH 7.4) was added. The plate was sealed and the two phases were mixed by shaking vigorously on a plate shaker for 1 hour at 25° C. The plate was then centrifuged for 2000 rpm for 5 minutes and the seal was removed. 10 μL of water was aspirated out of the water phase samples from the water phase plate and mixed with 10 μL of water (1:2 dilution). 180 μL of 50% Ethanol was added into the water phase sample plate (1:10 dilution) to achieve a 1:20 dilution. 50 μL of water phase samples were then mixed with 100 μL of 50% Ethanol (containing IS) into the water phase sample plate to achieve a 1:60 dilution. 10 μL from the octanol phase (the upper phase) was transferred into a new 96-well plate and 190 μL of 50% Ethanol was added (1:20 dilution). 10 μL of the 1:20 diluted octanol samples was transferred into a new 96 deep-well plate and 390 μL of 50% Ethanol (1:40 dilution) was added to achieve a 1:800 dilution. 50 μL of the 1:800 diluted octanol samples were transferred into a new 96-well plate and 100 μL of 50% Ethanol with IS was added to achieve a 1:2400 dilution. The samples were subsequently analyzed with LCMS.

The test system of the next data set is IFNα/pSTAT5. As to the kind of experiment: Whole blood potency (IFNα/pSTAT5), mouse. It counts as cell-based. Conditions: read-out: Cellular Whole Blood Potency IC50 (IFNα/pSTAT5), Mouse. The source says: Exemplary compounds of the invention, compounds 1 and 2 were compared in this assay.
For another data set, the system named is GM-CSF induced pSTAT5. As to the kind of experiment: GM-CSF induced pSTAT5 assay in CellSensor irf1-bla TF-1 cells. As to conditions: Homo sapiens, GM-CSF 1 ng/mL, read-out: Cellular selectivity (GM-CSF induced pSTAT5). It counts as cell-based. The procedure:
The CellSensor irfl-bla TF-1 cell line (LifeTechnologies, K1657) was cultured in RPMI 1640 Medium (Invitrogen 72400-047), 10% Fetal Bovine Serum (Invitrogen, 26400044), 1 mM Sodium pyruvate (Life Technologies, 11360039), 1% MEM NEAA (Life Technologies, 11140-035), 2 ng/ml of human recombinant GM-CSF (Fisher, PHC2015), 1% Penicillin/Streptomycin (Life Technologies, 15140-122) and 5 µg/ml of Blasticidin (ThermoFisher, A1113903).
The cell line was seeded in a T75 flask at 13×10^6 cells/50 mL in starvation medium (Opti-MEM™ I Reduced Serum Medium, no phenol red (Life Technologies, 11058-021), 1 mM Na pyruvate (Life Technologies, 11360039), 1% MEM NEAA (Life Technologies, 11140-035), and 1% Penicillin/Streptomycin (Life Technologies, 15140-122)) for 16 hours at 37° C. under 5% CO2 the day before the assay.
For the assay, CellSensor irfl-bla TF-1 cells were seeded at 30 000 cells/32 μL (starvation medium)/well in a 384-well plate.
Compounds were added on the cells in 4 μL (starvation medium)/well at 10× the final concentration. They were incubated for 30 minutes at 37° C.
Human recombinant carrier-free GM-CSF (ThermoFisher, ref PHC2015) was added to the wells in 4 μL (starvation medium)/well at 10×. The final concentration was 1 ng/mL. Control wells without GM-CSF treatment were added. Plates were incubated for 5 hours at 37° C.
6× LiveBlazer-FRET substrate (Invitrogen, K1085) was added to the wells at 8 μL/well. The substrate was prepared shortly before use by mixing 6 μL of solution A and 60 μL of solution B to 934 μL of solution C. Plates were incubated for 2.5 hours at room temperature in the dark. The plates were read on an Envision (Perkin Elmer) with an excitation at a wavelength of 409 nm and two wavelengths for the emission 520 nm and 450 nm. The ratio between the […] emission was used to calculate the IC50s.
The IC50 for the inhibition of pSTAT5 was calculated with the XLfit software using the 4 Parameter Logistic Model or Sigmoidal Dose-Response Model (model 205).

In general, LogD refers to the decadic logarithm of the distribution of all forms, ionised or not, between an organic phase and buffer at a given pH. A word on the logD: it is lipophilicity at a set pH, counting ionised and neutral species.

On to `C[C@@H](c1ccc(Nc2cc(Nc3ncccc3S(C)(=O)=O)ncn2)nc1)N1CC2(COC2)C1` [Compound 1, (S)—N^4-(5-(1-(2-oxa-6-azaspiro[3.3]heptan-6-yl)ethyl)pyridin-2-yl)-N^6-(3-(methylsulfonyl)pyridin-2-yl)pyrimidine-4,6-diamine], for which the values for the Kp at 12 h in the data set “Mouse colon distribution” (PO 10 mg/kg), in the data set “Mouse colon distribution” (PO 50 mg/kg) and in the data set “Mouse colon distribution” (PO 200 mg/kg) were 50, 33 and 25, respectively. Moreover, the “Half-life (t1/2)” value in data set [1] is on record as “†† (††: 1.0-1.5)”. Also, in data set [1], the “Maximum plasma concentration (Cmax)” value is “† (†: <800)”. Besides, the “Total systemic exposure (AUCinf)” value in data set [1] is “†† (††: 1000-2000)”. This molecule gave a LogD in data set [2] (octanol / potassium phosphate buffer pH 7.4) of 1.33. In data set [2], the logD at 1 h was about 1.3. Moreover, the IC50 is 116 nM with IFNα/pSTAT5 and 4000 to 10000 nM in the data set with GM-CSF induced pSTAT5.

Turning to `C[C@@H](c1ccc(Nc2cc(Nc3ncc(F)cc3S(C)(=O)=O)ncn2)nc1)N1CC2(COC2)C1` [Compound 2, (S)—N^4-(5-(1-(2-oxa-6-azaspiro[3.3]heptan-6-yl)ethyl)pyridin-2-yl)-N^6-(5-fluoro-3-(methylsulfonyl)pyridin-2-yl)pyrimidine-4,6-diamine], the Kp at 12 h in “Mouse colon distribution” (PO 10 mg/kg) is 24; in “Mouse colon distribution” (PO 50 mg/kg), 13; in “Mouse colon distribution” (PO 200 mg/kg), 7.4. Also, the “Half-life (t1/2)” value in data set [1] is “†† (††: 1.0-1.5)”. Also, the “Maximum plasma concentration (Cmax)” value in data set [1] is on record as “††† (†††: >1500)”. The “Total systemic exposure (AUCinf)” value in data set [1] was “††† (†††: >2000)”. In addition, in data set [2], the logD at 1 h was about 1.6. In addition, the IC50 with IFNα/pSTAT5 is 64.3 nM; in the data set on GM-CSF induced pSTAT5, over 10000 nM.
